# Laboratory results as given in the supplement of paper PMC10307832.
# Assays:
# Assay in all cases: relative viability (nuclei count vs DMSO), 5 days (fraction); higher = more cells survive
# [1] = compound: CS(=O)(=O)N1CCN(Cc2cc3nc(-c4cccc5[nH]ncc45)nc(N4CCOCC4)c3s2)CC1 [Pictilisib] + CC1(C)CCC(c2ccc(Cl)cc2)=C(CN2CCN(c3ccc(C(=O)NS(=O)(=O)c4ccc(N[C@H](CCN5CCOCC5)CSc5ccccc5)c(S(=O)(=O)C(F)(F)F)c4)cc3)CC2)C1 [Navitoclax] (partner 0.5 µM)
# How it was run: (§1)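 After 5 days of treatment, lung cancer cells in 1536-well plates were fixed and stained in a single step (final 0.05% Triton X-100, 1% formaldehyde, 1 ug/ml Hoechst) and their nuclei counted on 4× images. Treatment had been applied by pin tool the day after seeding as one drug alone or as a fixed anchor-drug dose with five library-drug doses (not always all listed) in √10 steps. Relative viability is the nuclei count of treated wells divided by that of vehicle wells, and values are medians of duplicate plates.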
# [2] = compound: NC1(c2ccc(-c3nc4ccn5c(=O)[nH]nc5c4cc3-c3ccccc3)cc2)CCC1 [MK-2206] + NC(=O)Nc1cc(-c2cccc(F)c2)sc1C(=O)N[C@H]1CCCNC1 [AZD7762] (partner 0.2 µM)
# How it was run: as §1
# [3] = compound: CS(=O)(=O)N1CCN(Cc2cc3nc(-c4cccc5[nH]ncc45)nc(N4CCOCC4)c3s2)CC1 [Pictilisib] + Cc1nc(NC(=O)N2CCC[C@H]2C(N)=O)sc1-c1ccnc(C(C)(C)C(F)(F)F)c1 [Alpelisib] (partner 2 µM)
# How it was run: as §1
# [4] = compound: NC1(c2ccc(-c3nc4ccn5c(=O)[nH]nc5c4cc3-c3ccccc3)cc2)CCC1 [MK-2206] + CC1(C)CCC(c2ccc(Cl)cc2)=C(CN2CCN(c3ccc(C(=O)NS(=O)(=O)c4ccc(N[C@H](CCN5CCOCC5)CSc5ccccc5)c(S(=O)(=O)C(F)(F)F)c4)cc3)CC2)C1 [Navitoclax] (partner 0.5 µM)
# How it was run: as §1
# [5] = compound: CS(=O)(=O)N1CCN(Cc2cc3nc(-c4cccc5[nH]ncc45)nc(N4CCOCC4)c3s2)CC1 [Pictilisib] + CC(C)C[C@H](NC(=O)[C@H](Cc1ccccc1)NC(=O)c1cnccn1)B(O)O [Bortezomib] (partner 0.002 µM)
# How it was run: as §1
Cell Line,relative viability ([1]; first compound 0.02 µM),relative viability ([1]; first compound 0.06325 µM),relative viability ([1]; first compound 0.6325 µM),relative viability ([1]; first compound 2 µM),relative viability ([2]; first compound 0.01 µM),relative viability ([2]; first compound 0.03162 µM),relative viability ([2]; first compound 0.3162 µM),relative viability ([2]; first compound 1 µM),relative viability ([3]; first compound 0.02 µM),relative viability ([3]; first compound 0.06325 µM),relative viability ([3]; first compound 0.6325 µM),relative viability ([3]; first compound 2 µM),relative viability ([4]; first compound 0.01 µM),relative viability ([4]; first compound 0.03162 µM),relative viability ([4]; first compound 0.3162 µM),relative viability ([4]; first compound 1 µM),relative viability ([5]; first compound 0.02 µM),relative viability ([5]; first compound 0.06325 µM),relative viability ([5]; first compound 0.6325 µM),relative viability ([5]; first compound 2 µM)
NCI-H1793,0.397,0.388,0.308,0.171,0.679,0.232,0.243,0.251,0.729,0.516,0.566,0.307,0.521,0.475,0.352,0.463,,,,
NCI-H1944,1.04,0.99,0.974,0.394,0.539,0.254,0.472,0.5,0.817,0.776,0.732,0.472,1.07,1.03,1.02,0.992,,,,
NCI-H2009,1.16,1.19,1.15,0.958,,,,,1.19,1.17,1.13,1.07,1.12,1.15,1.17,1.13,1.06,1.05,0.871,0.671
NCI-H2023,0.959,0.965,0.734,0.313,,,,,0.546,0.488,0.445,0.32,0.985,1.06,0.895,0.716,1.17,0.764,0.511,0.223
NCI-H2170,0.619,0.487,0.452,0.231,0.874,0.765,0.812,0.837,0.834,0.879,0.813,0.583,0.65,0.485,0.546,0.512,,,,
NCI-H2228,0.948,0.563,0.59,0.181,,,,,0.674,0.665,0.507,0.35,1.12,0.724,0.678,0.585,0.915,1.04,0.689,0.528
NCI-H2342,,,,,0.527,0.478,0.423,0.376,,,,,,,,,,,,
SK-LU-1,0.972,1.04,0.624,0.41,,,,,1.16,1.29,0.895,0.713,1.01,0.992,1.08,0.874,1.64,1.27,0.81,0.63
SK-MES-1,1.21,1.19,0.89,0.431,,,,,0.856,0.804,0.634,0.45,1.29,1.2,1.01,1.1,,,,
SW 900,,,,,0.531,,0.591,0.728,,,,,,,,,,,,
SW 1573,0.804,0.951,0.742,0.348,,,,,0.891,0.766,0.658,0.532,0.876,0.937,0.714,0.737,0.822,1.08,0.775,0.333
